In patent US6479435B1, “Diaryl ethers and processes for their preparation and herbicidal and desiccant compositions containing them” (ISK Americas Incorporated, priority 1997, dated 2002):

Experiments:
Assay type in all cases: in vivo
[1] = test system: field corn (Zea mays L., var. Dekalb 535, CORN); experiment: Post-emerge greenhouse test, crop damage rating; settings: 14 days after application
How it was run: (§1)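 Plants at the 2-3 leaf stage, sown 8-21 days earlier, were track-sprayed post-emergence with compound in acetone plus 0.25% v/v non-ionic surfactant at 63-1000 g ai/ha (187 l/ha). Damage was rated at 14 days on a 0-100 scale (0 none, 100 all plants dead), for both crop injury and weed control.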

[2] = test system: upland rice (Oryza sp., var.Tebonnet, RICE); experiment: Post-emerge greenhouse test, crop damage rating; settings: 14 days after application
How it was run: as §1

[3] = test system: field corn (Zea mays L., var. Dekalb 535, CORN); experiment: Pre-emerge greenhouse test, crop damage rating; settings: 14 days after application, rating scale 0-100
How it was run: (§2)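 Seeds sown in sandy loam one day before track-sprayer application of acetone solutions at 125–1000 g ai/ha (187 l/ha), then surface-watered to incorporate and bottom-watered. Injury scored visually at 14 days on a 0–100 scale (0 no damage, 100 complete death).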

[4] = test system: upland rice (Oryza sp., var.Tebonnet, RICE); experiment: Pre-emerge greenhouse test, crop damage rating; settings: 14 days after application, rating scale 0-100
How it was run: as §2

[5] = test system: ivyleaf morningglory (Ipomoea hederacea, IPOHE); experiment: Pre-emerge greenhouse herbicide test, phytotoxicity rating; settings: 14 days after application, rating scale 0-100
How it was run: as §2

[6] = test system: Johnsongrass (Sorghum halepense, SORHA); experiment: as above; settings: 14 days after application, rating scale 0-100
How it was run: as §2

[7] = test system: barnyardgrass (Echinochloa crusgalli, ECHCG); experiment: as above; settings: 14 days after application, rating scale 0-100
How it was run: as §2

[8] = test system: green foxtail (Setaria viridis, SETVI); experiment: as above; settings: 14 days after application, rating scale 0-100
How it was run: as §2

[9] = test system: velvetleaf (Abutilon theophrasti, ABUTH); experiment: as above; settings: 14 days after application, rating scale 0-100
How it was run: as §2

[10] = test system: large crabgrass (Digitaria sanguinalis, DIGSA); experiment: as above; settings: 14 days after application, rating scale 0-100
How it was run: as §2

[11] = test system: sicklepod (Cassia obtusifolia, CASOB); experiment: as above; settings: 14 days after application, rating scale 0-100
How it was run: as §2

[12] = test system: lambsquarters (Chenopodium album, CHEAL); experiment: as above; settings: 14 days after application, rating scale 0-100
How it was run: as §2

[13] = test system: common ragweed (Ambrosia artemisiifolia L., AMBEL); experiment: as above; settings: 14 days after application, rating scale 0-100
How it was run: as §2

[14] = test system: redroot pigweed (Amaranthus retroflexus, AMARE); experiment: as above; settings: 14 days after application, rating scale 0-100
How it was run: as §2

[15] = test system: ivyleaf morningglory (Ipomoea hederacea, IPOHE); experiment: Post-emerge greenhouse herbicide test, phytotoxicity rating; settings: 14 days after application
How it was run: as §1

[16] = test system: Johnsongrass (Sorghum halepense, SORHA); experiment: as above; settings: 14 days after application
How it was run: as §1

[17] = test system: barnyardgrass (Echinochloa crusgalli, ECHCG); experiment: as above; settings: 14 days after application
How it was run: as §1

[18] = test system: green foxtail (Setaria viridis, SETVI); experiment: as above; settings: 14 days after application
How it was run: as §1

[19] = test system: velvetleaf (Abutilon theophrasti, ABUTH); experiment: as above; settings: 14 days after application
How it was run: as §1

[20] = test system: large crabgrass (Digitaria sanguinalis, DIGSA); experiment: as above; settings: 14 days after application
How it was run: as §1

[21] = test system: sicklepod (Cassia obtusifolia, CASOB); experiment: as above; settings: 14 days after application
How it was run: as §1

[22] = test system: lambsquarters (Chenopodium album, CHEAL); experiment: as above; settings: 14 days after application
How it was run: as §1

[23] = test system: redroot pigweed (Amaranthus retroflexus, AMARE); experiment: as above; settings: 14 days after application
How it was run: as §1

[24] = test system: soybean (Glycine max L., var. Pella 86, SOY); experiment: Pre-emerge greenhouse test, crop damage rating; settings: 14 days after application, rating scale 0-100
How it was run: as §2

[25] = test system: common ragweed (Ambrosia artemisiifolia L., AMBEL); experiment: Post-emerge greenhouse herbicide test, phytotoxicity rating; settings: 14 days after application
How it was run: as §1

[26] = test system: soybean (Glycine max L., var. Pella 86, SOY); experiment: Post-emerge greenhouse test, crop damage rating; settings: 14 days after application
How it was run: as §1

In the case of O=c1n(-c2cc(Oc3ccccc3)c(Cl)cc2F)c(=S)n2n1CCCC2 [Compound 8-5], the “CORN crop damage rating (0-100)” value ([1]; 63 g al/ha) is reported as 5, the “CORN crop damage rating (0-100)” value ([1]; 500 g al/ha) is reported as 20 and the “RICE crop damage rating (0-100)” value ([2]; 63 g al/ha) is reported as 0. The “RICE crop damage rating (0-100)” value ([2]; 500 g al/ha) was 10, the “crop damage rating CORN” value ([3]; 125 g ai/ha) was 0 and the “crop damage rating CORN” value ([3]; 500 g ai/ha) was 5. The “crop damage rating RICE” value ([4]; 125 g ai/ha) was 0, the “crop damage rating RICE” value ([4]; 500 g ai/ha) was 25 and the “phytotoxicity rating IPOHE” value ([5]; 125 g ai/ha) was 0. For the same compound, the “phytotoxicity rating IPOHE” value ([5]; 500 g ai/ha) was 70, the “phytotoxicity rating SORHA” value ([6]; 125 g ai/ha) was 20 and the “phytotoxicity rating SORHA” value ([6]; 500 g ai/ha) was 30. For the same compound, the “phytotoxicity rating ECHCG” value ([7]; 125 g ai/ha) was 0, the “phytotoxicity rating ECHCG” value ([7]; 500 g ai/ha) was 60 and the “phytotoxicity rating SETVI” value ([8]; 125 g ai/ha) was 80. For the same compound, the “phytotoxicity rating SETVI” value ([8]; 500 g ai/ha) was 100, the “phytotoxicity rating ABUTH” value ([9]; 125 g ai/ha) was 100 and the “phytotoxicity rating ABUTH” value ([9]; 500 g ai/ha) was 100. For the same compound, the “phytotoxicity rating DIGSA” value ([10]; 125 g ai/ha) was 40, the “phytotoxicity rating DIGSA” value ([10]; 500 g ai/ha) was 85 and the “phytotoxicity rating CASOB” value ([11]; 125 g ai/ha) was 30. The “phytotoxicity rating CASOB” value ([11]; 500 g ai/ha) was 95, the “phytotoxicity rating CHEAL” value ([12]; 125 g ai/ha) was 100 and the “phytotoxicity rating CHEAL” value ([12]; 500 g ai/ha) was 100. For the same compound, the “phytotoxicity rating AMBEL” value ([13]; 125 g ai/ha) was 40, the “phytotoxicity rating AMBEL” value ([13]; 500 g ai/ha) was 100 and the “phytotoxicity rating AMARE” value ([14]; 125 g ai/ha) was 95. The “phytotoxicity rating AMARE” value ([14]; 500 g ai/ha) was 100, the “IPOHE phytotoxicity rating (0-100)” value ([15]; 63 g al/ha) was 90 and the “IPOHE phytotoxicity rating (0-100)” value ([15]; 500 g al/ha) was 100. For the same compound, the “SORHA phytotoxicity rating (0-100)” value ([16]; 63 g al/ha) was 10, the “SORHA phytotoxicity rating (0-100)” value ([16]; 500 g al/ha) was 60 and the “ECHCG phytotoxicity rating (0-100)” value ([17]; 63 g al/ha) was 20. For the same compound, the “ECHCG phytotoxicity rating (0-100)” value ([17]; 500 g al/ha) was 55, the “SETVI phytotoxicity rating (0-100)” value ([18]; 63 g al/ha) was 30 and the “SETVI phytotoxicity rating (0-100)” value ([18]; 500 g al/ha) was 65. For the same compound, the “ABUTH phytotoxicity rating (0-100)” value ([19]; 63 g al/ha) was 100, the “ABUTH phytotoxicity rating (0-100)” value ([19]; 500 g al/ha) was 100 and the “DIGSA phytotoxicity rating (0-100)” value ([20]; 63 g al/ha) was 0. For the same compound, the “DIGSA phytotoxicity rating (0-100)” value ([20]; 500 g al/ha) was 70, the “CASOB phytotoxicity rating (0-100)” value ([21]; 63 g al/ha) was 55 and the “CASOB phytotoxicity rating (0-100)” value ([21]; 500 g al/ha) was 100. The “CHEAL phytotoxicity rating (0-100)” value ([22]; 63 g al/ha) was 100, the “CHEAL phytotoxicity rating (0-100)” value ([22]; 500 g al/ha) was 100 and the “AMARE phytotoxicity rating (0-100)” value ([23]; 63 g al/ha) was 100. For the same compound, the “AMARE phytotoxicity rating (0-100)” value ([23]; 500 g al/ha) was 100, the “crop damage rating SOY” value ([24]; 125 g ai/ha) was 0 and the “crop damage rating SOY” value ([24]; 500 g ai/ha) was 40. The “AMBEL phytotoxicity rating (0-100)” value ([25]; 63 g al/ha) was 55, the “AMBEL phytotoxicity rating (0-100)” value ([25]; 500 g al/ha) was 100 and the “SOY crop damage rating (0-100)” value ([26]; 63 g al/ha) was 50. The “SOY crop damage rating (0-100)” value ([26]; 500 g al/ha) was 85.
